According to US20260042772A1, “FURO PYRIMIDINE DERIVATES” (Merck Patent GmbH, priority 2022, published 2026):

Legend:
Format in all cases: cell-based
[1] = test system: chloroquine sensitive (CQS) strain (NF54) of P. falciparum; assay: In vitro antiplasmodial activity, Assay A (parasite lactate dehydrogenase assay); conditions: Plasmodium falciparum
Protocol: Test samples were screened for in vitro antiplasmodial activity against a chloroquine sensitive (CQS) strain (NF54) of the malaria parasite P. falciparum. Continuous in vitro cultures of asexual erythrocyte stages of P. falciparum were maintained using a modified version of the method of Trager and Jensen (1976).1 Quantitative assessment of antiplasmodial activity in vitro was determined via the parasite lactate dehydrogenase assay using a modified method described by Makler (1993). The test samples were tested in triplicate on two separate occasions. Further dilutions were prepared in complete medium on the day of the experiment. Samples were tested as a suspension if not completely dissolved. Chloroquine and artesunate were used as the reference drugs. A full dose-response were performed starting at a concentration of 3000 nM, which is then serially diluted 2-fold in complete medium to give 10 concentrations; with the lowest concentration being approximately 6 nM. The same dilution techniques were used for all samples. References were tested at a starting concentration of 1000 ng/mL. The highest concentration of solvent to which the parasites were exposed has no measurable effect on the parasite viability (data not shown).

[2] = test system: CQC sensitive strain (NF54) of P. falciparum; assay: In vitro antiplasmodial activity, Assay B (as described by Vennerstrom et al. 2004); conditions: Plasmodium falciparum; NF54, Vennerstrom et al. method
Protocol: Compounds were screened against CQC sensitive strain (NF54) of P. falciparum in vitro as described by Vennerstrom et al. (2004). A full dose-response were performed starting at a concentration of 3000 nM, which is then serially diluted 2-fold in complete medium to give 10 concentrations; with the lowest concentration being approximately 6 nM. The same dilution techniques were used for all samples. References were tested at a starting concentration of 1000 ng/mL. The highest concentration of solvent to which the parasites were exposed has no measurable effect on the parasite viability (data not shown).

[3] = test system: sensitive (NF54) strains of P. falciparum; assay: In vitro P. falciparum assay, modified [3H]hypoxanthine incorporation assay; conditions: Plasmodium falciparum; NF54 strain, [3H]hypoxanthine incorporation; read-out: In vitro P. falciparum growth inhibition IC50
Excerpt: Compounds according to the present invention were screened against sensitive (NF54) strains of P. falciparum in vitro using the modified [3H]hypoxanthine incorporation assay. (Vennerstrom, J. L.; Arbe-Barnes, S.; Brun, R.; Charman, S. A.; Chiu, F. C. K.; Chollet, J.; Dong, Y.; Dorn, A.; Hunziker, D.; Matile, H.; McIntosh, K.; Padmanilayam, M.; Tomas, J. S.; Scheurer, C.; Scorneaux, B.; Tang, Y.; Urwyler, H.; Wittlin, S. and Charman, W. N. Identification of an Antimalarial Synthetic Trioxolane Drug Development Candidate. Nature, 2004, 430, 900-904.).
Compound concentrations at which growth of P. falciparum was inhibited by 50% compared to untreated controls was measured in nM (IC50).
Compound concentrations at which growth of P. falciparum was inhibited by 50% compared to untreated controls was measured in nM (IC50) as described above (PfNF54 IC50 (nM)).

SMILES | IC50 [1] | IC50 [2] | IC50 [3]
CC(C)(O)c1cc(-c2ncnc3cc(-c4ccc(C(=O)N5C[C@@H]6C[C@H]5CO6)cc4)oc23)ccn1 [Compound D176, ((1S,4S)-2-oxa-5-azabicyclo[2.2.1]heptan-5-yl)(4-(4-(2-(2-hydroxypropan-2-yl)pyridin-4-yl)furo[3,2-d]pyrimidin-6-yl)phenyl)methanone] | < 15 nM | < 15 nM | 
CC(C)(O)c1cc(-c2ncnc3cc(-c4ccc(C(=O)N5C[C@H]6C[C@@H]5CO6)cc4)oc23)ccn1 [Compound D177, ((1R,4R)-2-oxa-5-azabicyclo[2.2.1]heptan-5-yl)(4-(4-(2-(2-hydroxypropan-2-yl)pyridin-4-yl)furo[3,2-d]pyrimidin-6-yl)phenyl)methanone] | < 15 nM | < 15 nM | 
C[C@H]1CN(C(=O)c2ccc(-c3cc4ncnc(-c5cccc(C(C)(C)O)c5F)c4o3)cc2)CCO1 [Compound D191, (S)-(4-(4-(2-fluoro-3-(2-hydroxypropan-2-yl)phenyl)furo[3,2-d]pyrimidin-6-yl)phenyl)(2-methylmorpholino) methanone] | < 15 nM | < 15 nM | 
C[C@@H]1CN(C(=O)c2ccc(-c3cc4ncnc(-c5cccc(C(C)(C)O)c5F)c4o3)cc2)CCO1 [Compound D192, (R)-(4-(4-(2-fluoro-3-(2-hydroxypropan-2-yl)phenyl)furo[3,2-d]pyrimidin-6-yl)phenyl)(2-methylmorpholino) methanone] | < 15 nM | < 15 nM | 
C[C@@H]1CN(C(=O)c2ccc(-c3cc4ncnc(-c5cccc(C(C)(C)O)c5F)c4o3)cc2)C[C@@H](C)O1 [Compound D193, ((2R,6R)-2,6-dimethylmorpholino)(4-(4-(2-fluoro-3-(2-hydroxypropan-2-yl)phenyl)furo[3,2-d]pyrimidin-6-yl)phenyl)methanone] | < 15 nM | < 15 nM | 
C[C@H]1CN(C(=O)c2ccc(-c3cc4ncnc(-c5cccc(C(C)(C)O)c5F)c4o3)cc2)C[C@H](C)O1 [Compound D194, ((2S,6S)-2,6-dimethylmorpholino)(4-(4-(2-fluoro-3-(2-hydroxypropan-2-yl)phenyl)furo[3,2-d]pyrimidin-6-yl)phenyl)methanone] | < 15 nM | < 15 nM | 
C[C@H]1COCCN1C(=O)c1ccc(-c2cc3ncnc(-c4cccc(C(C)(C)O)c4F)c3o2)cc1 [Compound D195, (S)-(4-(4-(2-fluoro-3-(2-hydroxypropan-2-yl)phenyl)furo[3,2-d]pyrimidin-6-yl)phenyl)(3-methylmorpholino) methanone] | < 15 nM | < 15 nM | 
C[C@@H]1COCCN1C(=O)c1ccc(-c2cc3ncnc(-c4cccc(C(C)(C)O)c4F)c3o2)cc1 [Compound D196, (R)-(4-(4-(2-fluoro-3-(2-hydroxypropan-2-yl)phenyl)furo[3,2-d]pyrimidin-6-yl)phenyl)(3-methylmorpholino) methanone] | < 15 nM | < 15 nM | 
CN1CCN(C(=O)c2ccc(-c3cc4ncnc(-c5cccc(C(C)(C)O)c5F)c4o3)cc2)CC1 [Compound D204, (4-(4-(2-fluoro-3-(2-hydroxypropan-2-yl)phenyl)furo[3,2-d]pyrimidin-6-yl)phenyl)(4-methylpiperazin-1-yl)methanone] |  | < 15 nM | < 10 nM
CC(C)(O)c1nccc(-c2ncnc3cc(-c4ccc(C(=O)N5CCOCC5)cc4)oc23)c1F [Compound D207, (4-(4-(3-fluoro-2-(2-hydroxypropan-2-yl)pyridin-4-yl)furo[3,2-d]pyrimidin-6-yl)phenyl)(morpholino) methanone] | < 15 nM | < 15 nM | 
CC(C)(O)c1nccc(-c2ncnc3cc(-c4ccc(C(=O)N5C[C@H]6C[C@@H]5CO6)cc4)oc23)c1F [Compound D208, ((1R,4R)-2-oxa-5-azabicyclo[2.2.1]heptan-5-yl)(4-(4-(3-fluoro-2-(2-hydroxypropan-2-yl)pyridin-4-yl)furo[3,2-d]pyrimidin-6-yl)phenyl)methanone] | < 15 nM | < 15 nM | 
CC(C)(O)c1cccc(-c2ncnc3cc(-c4ccc([S@@](C)(=N)=O)cc4)oc23)c1F [Compound D209, (S)-(4-(4-(2-fluoro-3-(2-hydroxypropan-2-yl)phenyl)furo[3,2-d]pyrimidin-6-yl)phenyl)(imino)(methyl)-λ^6-sulfanone] | < 15 nM |  | < 10 nM
CC(C)(O)c1cccc(-c2ncnc3cc(-c4ccc([S@](C)(=N)=O)cc4)oc23)c1F [Compound D210, (R)-(4-(4-(2-fluoro-3-(2-hydroxypropan-2-yl)phenyl)furo[3,2-d]pyrimidin-6-yl)phenyl)(imino)(methyl)-λ^6-sulfanone] | < 15 nM |  | < 10 nM
CC(C)(O)c1cccc(-c2ncnc3cc(-c4ccc(S5(=O)=NCCCC5)cc4)oc23)c1F (stereo not drawn) [Compound D211, 1-(4-(4-(2-fluoro-3-(2-hydroxypropan-2-yl)phenyl)furo[3,2-d]pyrimidin-6-yl)phenyl)-3,4,5,6-tetrahydro-1,2-thiazine 1-oxide] |  |  | < 10 nM
CS(=O)(=O)c1ccc(-c2cc3ncnc(-c4ccnc(N5CC(O)C5)c4)c3o2)cc1 [Compound P1, 1-(4-(6-(4-(methylsulfonyl)phenyl)furo [3,2-d]pyrimidin-4-yl)pyridin-2-yl)azetidin-3-ol] | > 50 nM | > 50 nM | 
C[C@@H]1CN(C(=O)c2ccc(-c3cc4ncnc(-c5ccnc(C(C)(C)O)c5)c4o3)cc2)C[C@H](C)O1 [Compound P17, ((2S,6R)-2,6-dimethylmorpholino)(4-(4-(2-(2-hydroxypropan-2-yl)pyridin-4-yl)furo[3,2-d]pyrimidin-6-yl)phenyl)methanone] | > 50 nM | < 15 nM | 
C[C@H]1CN(C(=O)c2ccc(-c3cc4ncnc(-c5ccnc(C(C)(C)O)c5)c4o3)cc2)CCO1 [Compound P18, (S)-(4-(4-(2-(2-hydroxypropan-2-yl)pyridin-4-yl)furo[3,2-d]pyrimidin-6-yl)phenyl)(2-methylmorpholino) methanone] | 15 to 50 nM | < 15 nM | 
C[C@@H]1CN(C(=O)c2ccc(-c3cc4ncnc(-c5ccnc(C(C)(C)O)c5)c4o3)cc2)CCO1 [Compound P19, (R)-(4-(4-(2-(2-hydroxypropan-2-yl)pyridin-4-yl)furo[3,2-d]pyrimidin-6-yl)phenyl)(2-methylmorpholino) methanone] | < 15 nM | < 15 nM | 
C[C@@H]1CN(C(=O)c2ccc(-c3cc4ncnc(-c5cccc(C(C)(C)O)c5F)c4o3)cc2)C[C@H](C)O1 [Compound P20, ((2S,6R)-2,6-dimethylmorpholino)(4-(4-(2-fluoro-3-(2-hydroxypropan-2-yl)phenyl)furo[3,2-d]pyrimidin-6-yl)phenyl)methanone] | < 15 nM | < 15 nM | 
CC(C)(O)c1cccc(-c2ncnc3cc(-c4ccc(C(=O)N5C[C@H]6C[C@@H]5CO6)cc4)oc23)c1F [Compound P21, ((1R,4R)-2-oxa-5-azabicyclo[2.2.1]heptan-5-yl)(4-(4-(2-fluoro-3-(2-hydroxypropan-2-yl)phenyl)furo[3,2-d]pyrimidin-6-yl)phenyl)methanone] | < 15 nM | < 15 nM | 
CC(C)(O)c1cc(-c2ncnc3cc(-c4ccc(C5(C(=O)N6C[C@@H]7C[C@H]6CO7)CC5)cc4)oc23)ccn1 [Compound P23, ((1S,4S)-2-oxa-5-azabicyclo[2.2.1]heptan-5-yl)(1-(4-(4-(2-(2-hydroxypropan-2-yl)pyridin-4-yl)furo[3,2-d]pyrimidin-6-yl)phenyl)cyclopropyl) methanone] | > 50 nM | > 50 nM | 
CC(C)(O)c1cc(-c2ncnc3cc(-c4ccc(C5(C(=O)N6C[C@H]7C[C@@H]6CO7)CC5)cc4)oc23)ccn1 [Compound P24, ((1R,4R)-2-oxa-5-azabicyclo[2.2.1]heptan-5-yl)(1-(4-(4-(2-(2-hydroxypropan-2-yl)pyridin-4-yl)furo[3,2-d]pyrimidin-6-yl)phenyl)cyclopropyl) methanone] | > 50 nM | > 50 nM | 
CC(C)(O)c1nccc(-c2ncnc3cc(-c4ccc(S(C)(=O)=O)cc4)oc23)c1F [Compound P31, 2-(3-fluoro-4-(6-(4-(methylsulfonyl)phenyl)furo [3,2-d]pyrimidin-4-yl)pyridin-2-yl)propan-2-ol] | < 15 nM | < 15 nM | 
